One compound from patent US11779628B2, “Use of cell-permeable peptide inhibitors of the JNK signal transduction pathway for the treatment of various diseases” (Xigen Inflammation Ltd., priority 2014, dated 2023) can be followed below.

Data set [1] has as its system HCT 116 human colon tumor. In words: Orthotopic HCT 116 human colon tumors in SCID mice. The class given is in vivo. As to the method: The objective of this study was to determine the effect of XG-102 on the growth of HCT 116 human colon tumor orthotopically xenografted in SCID mice.
For XG-102 administration the required amount of XG-102 was dissolved in the vehicle. The formulation was prepared according to the procedure detailed below. Concentrations were calculated and expressed taking into account test item purity and peptide content (multiplier coefficient was 74.6%). […] Diluted solutions were maintained on ice until use. Unused material was discarded. XG-102 was injected once daily at 0.1 and 1 mg/kg/inj. for a total of fourteen consecutive administrations (Q1Dx14). The routes of substance administrations were: injected subcutaneously (SC) at 5 ml/kg/inj., administered per os (PO) to mice by oral gavage via a cannula at 5 ml/kg/adm. The injection and administration volumes were adapted, according to the daily individual body weight of mice.
Twenty four to Forty-eight hours before tumor induction, 5 SCID mice were irradiated with a γ-source (1.8 Gy, Co^60, INRA, Dijon, France). Ten millions (10^7) HCT 116 cells suspended in 200 μl of RPMI medium were subcutaneously injected in the right flank of the 5 female SCJD mice. When tumors reached 1000-2000 mm^3, mice were sacrificed. Tumors were surgically excised from the animal to obtain fresh tumor fragments (20-30 mg) to be orthotopically implanted on the caecum of 75 mice at D0.
Twenty four to forty-eight hours before tumor implantation, 75 SCID mice were irradiated with a γ-source (1.8 Gy, Co^60, INRA, Dijon, France). The surgery was performed in the afternoon, with a minimum delay of two hours after the 7th XG-102 treatment. The abdomen from anaesthetized animal was opened through a median incision under aseptic conditions. The caecum was exteriorized and a small lesion was performed on caecum wall. The tumor fragment was placed on lesion and fixed with 6/0 sutures. The abdominal cavity was subsequently closed in 2 layers with 4/0 sutures.
At D-7, mice were randomized according to their body weight before treatment start to form 5 groups of 15 mice. The body weight of each group was not statistically different from the others (analysis of variance). The treatment began at D-7 according to following treatment schedule: • Mice from group 1 received one PO administration of XG-102 vehicle at 5 ml/kg/inj. once daily for a total of fourteen consecutive administrations (Q 1 Dx14), • Mice from group 2 received one PO administration of XG-102 at 0.1 mg//kg/inj. once daily for a total of fourteen consecutive administrations (QI Dx14), • Mice from group 3 received one PO administration of XG-102 at 1 mg//kg/inj. Once daily for a total of fourteen consecutive administrations (Q1Dx14), • Mice from group 4 received one SC injection of XG-102 at 0.1 mg//kg/inj. once daily for a total of fourteen successive administrations (Q1Dx14), • Mice from group 5 received one SC injection of XG-102 at 1 mg//kg/inj. once daily for a total of fourteen consecutive administrations (Q1Dx14):
Mice were monitored every day throughout the study for behaviour and survival. The body weight and tumor volume was monitored twice a week for all mice throughout the study. Isoflurane® Forene (Centravet, Bondoufle, France) was used to anaesthetize the animals before cell injection, surgery (orthotopic tumor implantation) and sacrifice.
Mice were sacrificed at D26. […] Invasion of liver by tumor nodules was evaluated macroscopically. […]

For another data set, the system named is Brown Norway rats, STZ. In words: Diabetic retinopathy prevention study in STZ treated rat (IVT). The class given is in vivo. The note with it: 0.2 and 2 μg/eye IVT. The text has this:
The objective of this study was to determine the ability of XG-102 to prevent diabetic retinopathy when administered by intravitreal injections to streptozotocin (STZ)-treated (hyperglycemic) rats.
Sterile vials containing 0.0412 g of inducing agent (STZ) were pre-weighed, sealed and transferred to the dosing room for administration to Groups 2 to 4 animals and Spares on Day −7. A duplicate set of empty, appropriately labeled sterile vials were provided. The reconstituted STZ solution was filtered into these vials for dosing. The Reference Item, 0.9% NaCl, was administered as received. XG-102 was prepared using the correction factor 1.383. A stock solution equal to the highest dose level was prepared in vehicle, 0.9% Sodium Chloride for Injection, and sterile filtered through a 0.22 μm polyvinylidene difluoride (PVDF) filter. The lower dose levels were prepared by directly diluting the stock solution. Dose formulations were prepared once at appropriate concentrations to meet dosage level requirements. All dilutions were prepared by directly diluting the stock solution with vehicle. Three dosing aliquots (Days 1, 8 and 15) were prepared and stored in a freezer set to maintain −20° C. Aliquot(s) of each dose level were thawed at ambient temperature on each day of dosing and the solution maintained at room temperature for no longer than 6 hours. […]

SMILES strings stand for the structures.

As for `CC(C)C[C@@H](NC(=O)[C@@H](Cc1ccccc1)NC(=O)[C@H]1CCCN1C(=O)[C@@H](CCC(N)=O)NC(=O)[C@H](NC(=O)[C@H]1CCCN1C(=O)[C@@H](CCCNC(=N)N)NC(=O)[C@@H](CO)NC(=O)[C@@H](CCC(N)=O)NC(=O)[C@H](N)CC(=O)O)C(C)C)C(=O)N[C@H](CC(N)=O)C(=O)N[C@H](CC(C)C)C(=O)N[C@@H](C(=O)N[C@@H](C(=O)N1CCC[C@@H]1C(=O)N[C@H](CCCNC(=N)N)C(=O)N[C@H](CCCCN)C(=O)N1CCC[C@@H]1C(=O)N[C@H](CCCNC(=N)N)C(=O)N1CCC[C@@H]1C(=O)N1CCC[C@@H]1C(=O)N[C@H](CCCNC(=N)N)C(=O)N[C@H](CCCNC(=N)N)C(=O)N[C@H](CCCNC(=N)N)C(=O)N[C@H](CCC(N)=O)C(=O)N[C@H](CCCNC(=N)N)C(=O)N[C@H](CCCNC(=N)N)C(=O)N[C@H](CCCCN)C(=O)N[C@H](CCCCN)C(=O)N[C@H](CCCNC(=N)N)C(=O)NCC(=O)O)[C@H](C)O)[C@H](C)O` [XG-102], the “percentage of death D0 to D9 (surgery complications)” value in data set [1] (1st treated group listed (PO 0.1 mg/kg, order assumed)) is 40%; in data set [1] (2nd treated group listed (PO 1 mg/kg, order assumed)), 34%; in data set [1] (3rd treated group listed (SC 0.1 mg/kg, order assumed)), 47%; in data set [1] (4th treated group listed (SC 1 mg/kg, order assumed)) it was 40%. Also, the “MBWC at D-2” value in data set [1] (PO 0.1 mg/kg/adm.) is listed as “+7.1±4.6%”. The “clinical signs, body weights, food consumption” value with Brown Norway rats, STZ is “no XG-102-related clinical signs or effects on body weights, body weight gains or food consumption”. Moreover, the deaths result with Brown Norway rats, STZ is on record as “no XG-102-related deaths during the study”.
